# Test results taken from patent publication US20200278355A1, “CONJUGATED PROTEINS AND USES THEREOF” (THE SCRIPPS RESEARCH INSTITUTE, priority 2017, published 2020).
# System: CRY1, DEPDC1, and CPLX2 expression in KEAP1-mutant NSCLC cells (H460, H2122)
# Assay: Gene expression changes (RNA sequencing, qPCR) in KEAP1-mutant NSCLC cells
# Format: cell-based, human
# Details: 12 h; for gene expression changes (CRY1, DEPDC1, CPLX2): KEAP1-mutant NSCLC cells
# Experimental: FIG. 13A-FIG. 13E illustrate characterization of NR0B1 ligands in Keap1-mutant NSCLC cells. […] Top: Heat map depicting changes in gene expression between H460 cells expressing shNRF2, shNR0B1 or a control (shGFP) and those treated with vehicle (DMSO), BPK-29 or BPK-9 (30 μM, 12 h). Expression for each condition was first normalized to appropriate controls (shGFP or DMSO) and then normalized by row. Bottom: Overlap between gene sets regulated in BPK-29-treated vs shNR0B1 H460 cells. Gene set enrichment analysis (GSEA) was applied to all genes that were differentially expressed between shNR0B1-H460 cells and shGFP-H460 cells or between H460 cells treated with BPK-29 or DMSO. Genes were ranked based on their FDR. The FDR q-value was computed by GSEA on the C2.all collection and a cut off of FDR<0.05 was required for a gene set to be considered enriched. […] H460 (left) or H2009 (right) cells were treated with vehicle, BPK-29, or BPK-9 (25 μM, 12 h). Gene expression changes for CRY1, DEPDC1, and CPLX2 were determined by qPCR and data represents mean values+SD (n=4-10). […] Cells were treated with the vehicle, BPK-29, or BPK-9 (30 μM, 12 h). Gene expression changes for Cry1, DEPDC1, and CPLX2 were determined by qPCR and data represents mean values+SD (n=4-6). […] H460 cells were treated with vehicle or BPK-29 or BPK-9 at the indicated concentrations for 9 h. Protein expression was analyzed by immunoblotting. […] Top: H460 cells were treated with cycloheximide (100 μg/mL) for the indicated time points and NR0B1 protein content assessed by immunoblotting. […] NR0B1 protein content was determined following cycloheximide treatment and data were fit into a one-phase exponential decay model. […]
# RNA was isolated by RNeasy Kit (Qiagen) and digested with DNase (Qiagen) from n=3 samples per condition (cells expressing shGFP, shNRF2_1, shNR0B1_1 or shSNW1_1 or treated with DMSO, 30 μM BPK-29 or 30 μM BPK-9). RNA integrity (RIN) numbers were determined using the Agilent TapeStation prior to library preparation. mRNA-seq libraries were prepared using the TruSeq RNA library preparation kit (version 2) according to the manufacturer's instructions (Illumina). Libraries were then quantified, pooled, and sequenced by single-end 50 base pairs using the Illumina HiSeq 2500 platform at the Salk Next-Generation Sequencing Core. […] Libraries were sequenced at an average depth of 15 million reads per sample.
# The spliced read aligner STAR (Dobin et al., 2013) was used to align sequencing reads to the human hg19 genome. Gene-level read counts were obtained based on UCSC hg19 gene annotation. DESeq2 (Love et al., 2014) was used to calculate differential gene expression based on uniquely aligned reads, and p-values were adjusted for multiple hypothesis testing with the Benjamini-Hochberg method.
Compound,"gene expression changes (CRY1, DEPDC1, CPLX2) (30 μM)","expression of representative genes (CRY1, DEPDC1, CPLX2) by qPCR (KEAP1-mutant H460 cells, 25 μM)","expression of representative genes (Cry1, DEPDC1, CPLX2) by qPCR (KEAP1-mutant H2122 cells, 30 μM)"
"O=C(c1ccc(N2CCOCC2)cc1)N1CCC(CN(C(=O)CCl)c2cncnc2)CC1 [BPK-9, 2-chloro-N-((1-(4-morpholinobenzoyl)piperidin-4-yl)methyl)-N-(pyrimidin-5-yl)acetamide]",not observed,–,–
"O=C(c1ccc(N2CCOCC2)cc1)N1CCCC(N(Cc2ccccc2)C(=O)CCl)CC1 (stereo not shown) [BPK-29, N-benzyl-2-chloro-N-(1-(4-morpholinobenzoyl)azepan-4-yl)acetamide]","reductions in CRY1, DEPDC1, and CPLX2",alters the expression,alters the expression
